Test results published in patent US4291053A, “Agent to be administered orally to domestic animals without cellulose digestion in the rumen” (Hoechst Aktiengesellschaft, priority 1976, dated 1981).
Values after ≈ are worked out from the molar mass of the structure shown. Structures can show the parent of a compound that is named as a salt. Where two headings read alike, the source gives them in different places.

Assays:
Treponema hyodysenteriae = assay: Minimum inhibiting concentration against Treponema hyodysenteriae, agar diffusion test with dilution series; format: cell-based; settings: for MIC: Brachyspira hyodysenteriae, read-out: Minimum inhibiting concentration (MIC)
Experimental: In order to detect the surprising effect on Treponema hyodysenteriae, this microorganism was cultivated according to the method of Harris on a trypticase-soy-agar using an addition of horse blood of 5% in a CO2 /H2 atmosphere, and the minimum inhibiting concentration of Salinomycin was determined in the agar diffusion test, while using the corresponding dilution series, as compared against commercial preparations showing a particularly good effect in dysentery diseases.

specified microorganisms = settings: antibacterial spectrum, J. Antibiotics 1974; cited from earlier work
[1] = Feeding test with Salinomycin as raw product: growth and feed efficiency in early weaned piglets (Example 2); format: in vivo; settings: for statistical significance of the improvement (weight gain and feed efficiency): vs control; for Feed efficiency per animal, relative / Weight gain per animal, relative: relative to control
Experimental: A feeding test using Salinomycin as a raw product was carried out on 46 piglets weaned at an early age (4 weeks old) that were kept in sub-groups comprising 3 or 4 animals.
Initial weight: 9.8 kg on an average. The feed ration indicated in Example 1 served as basic feed.
4 Sub-groups comprising 15 animals altogether formed the untreated control group. 4 Sub-groups comprising 16 animals altogether were given 25 mg of Salinomycin as raw product per kg of feed, and 4sub-groups comprising 15 animals altogether were given 50 mg of Salinomycin per kg of feed in the form of the raw product. The test period was 8 weeks, with individual weighing at intervals of 2 weeks.

[2] = Piglet test S 83/75: incidence of diarrhea in feeding test (Example 1); format: in vivo, piglets
Experimental: A feeding test using Salinomycin was carried out on 78 piglets which were kept in boxes with 4 (or 3) animals each. At the beginning of the test, the animals were about 4 weeks old. Four replicates formed one group, and the following treatments were carried out:
1st group: untreated control group
2nd group: Salinomycin as raw product 25 mg/kg of fodder
3rd group: Salinomycin as raw product 50 mg/kg of fodder
4th group: Salinomycin as mycelium 50 mg/kg of fodder
5th group: comparison preparation A 50 mg/kg of fodder (5-Nitromidazol)
The basic feed had the following composition:
The occurrence of diarrhea in the individual boxes (sub-groups) was registered in the test periods of 14 days each and in the total test run of 56 days.

[3] = Feeding test with Salinomycin as mycelium: growth and feed efficiency in early weaned piglets (Example 3); format: in vivo; settings: for Feed efficiency per animal, relative / Weight gain per animal, relative: relative to control
Experimental: A feeding test using Salinomycin as a mycelium was carried out on 47 piglets weaned at an early age (4 weeks old) which were kept in sub-groups comprising 4 and 3 animals, respectively. The initial weight was 9.8 kg on an average. The feed ration indicated in Example 1 served as basic feed.
4 Sub-groups comprising 15 animals altogether formed the untreated control group. 4 Sub-groups comprising 16 animals altogether were given 50 mg of Salinomycin as a mycelium per kg of feed, and 4 sub-groups comprising 16 animals altogether were given 50 mg of a comparison preparation A (5-Nitroimidazol) per kg of feed. The test period was 8 weeks, with individual weighing at intervals of 2 weeks.

[4] = trypticase-soy-agar with 5% horse blood, CO2/H2 atmosphere
[5] = raw product 25 ppm, 8 weeks, ++ 99% significance
[6] = raw product 50 ppm, 8 weeks, +++ 99.9% significance
[7] = 50 mg per kg of feed as mycelium, 8 weeks
[8] = 50 ppm (Salinomycin as mycelium), 2 weeks
[9] = 50 ppm (Salinomycin as mycelium), 4 weeks
[10] = 50 ppm (Salinomycin as mycelium), 6 weeks
[11] = 50 ppm (Salinomycin as mycelium), 8 weeks

CN(C)[C@@H]1C(=O)C(C(N)=O)=C(O)[C@@]2(O)C(=O)C3=C(O)c4c(O)cccc4[C@@](C)(O)[C@H]3[C@H](O)[C@@H]12 [Oxytetracycline]
MIC (Treponema hyodysenteriae): 100 µg/mL (≈ 217 µM)

CC(C)c1ncc([N+](=O)[O-])n1C [Ipronidazol]
MIC (Treponema hyodysenteriae; [4]): 2 µg/mL (≈ 11.8 µM)

Cc1ncc([N+](=O)[O-])n1C [Dimethridazol]
MIC (Treponema hyodysenteriae; [4]): 5 µg/mL (≈ 35.4 µM)

C[n+]1c2cc(N)ccc2cc2ccc(N)cc21.[Cl-] [3,6-Diamino-10-methyl-acridinium chloride]
MIC (Treponema hyodysenteriae): 100 µg/mL

CC[C@H]1OC(=O)[C@H](C)[C@@H](O[C@H]2C[C@@](C)(OC)[C@@H](O)[C@H](C)O2)[C@H](C)[C@@H](O[C@@H]2O[C@H](C)C[C@H](N(C)C)[C@H]2O)[C@](C)(O)C[C@@H](C)C(=O)[C@H](C)[C@@H](O)[C@]1(C)O [Erythromycin]
MIC (Treponema hyodysenteriae): > 100 µg/mL

CCOc1ccc2nc3cc(N)ccc3c(N)c2c1 [Ethacridine lactate]
MIC (Treponema hyodysenteriae; [4]): 100 µg/mL

CC[C@@H](C(=O)[C@@H](C)[C@@H](O)[C@H](C)[C@@H]1O[C@@H]([C@@H](CC)C(=O)O)CC[C@@H]1C)[C@H]1O[C@]2(C=C[C@@H](O)[C@]3(CC[C@@](C)([C@H]4CC[C@](O)(CC)[C@H](C)O4)O3)O2)[C@H](C)C[C@@H]1C [Salinomycin]
effect against the specified microorganisms (specified microorganisms): only an insiginificant or moderate effect | statistical significance of the improvement (weight gain and feed efficiency) ([1]; raw product 25 mg per kg of feed): 99% | statistical significance of the improvement (weight gain and feed efficiency) ([1]; raw product 50 mg per kg of feed): 99.9% | Daily weight gain per animal ([1]; raw product 25 ppm, 2 weeks): 171 g | Feed efficiency per animal, absolute ([1]; raw product 25 ppm, 2 weeks): 1.900 | Weight gain per animal, absolute ([1]; raw product 25 ppm, 2 weeks): 2.4 kg | Feed efficiency per animal, relative ([1]; raw product 25 ppm, 2 weeks): 95.8% | Weight gain per animal, relative ([1]; raw product 25 ppm, 2 weeks): 104.3% | Daily weight gain per animal ([1]; raw product 25 ppm, 4 weeks): 250 g | Feed efficiency per animal, absolute ([1]; raw product 25 ppm, 4 weeks): 1.800 | Weight gain per animal, absolute ([1]; raw product 25 ppm, 4 weeks): 7.0 kg | Feed efficiency per animal, relative ([1]; raw product 25 ppm, 4 weeks): 95.7% | Weight gain per animal, relative ([1]; raw product 25 ppm, 4 weeks): 104.6% | Daily weight gain per animal ([1]; raw product 25 ppm, 6 weeks): 317 g | Feed efficiency per animal, absolute ([1]; raw product 25 ppm, 6 weeks): 1.802 | Weight gain per animal, absolute ([1]; raw product 25 ppm, 6 weeks): 13.0 kg | Feed efficiency per animal, relative ([1]; raw product 25 ppm, 6 weeks): 96.9% | Weight gain per animal, relative ([1]; raw product 25 ppm, 6 weeks): 103.3% | Daily weight gain per animal ([1]; raw product 25 ppm, 8 weeks): 380 g | Feed efficiency per animal, absolute ([1]; raw product 25 ppm, 8 weeks): 1.898 | Weight gain per animal, absolute ([1]; raw product 25 ppm, 8 weeks): 21.3 kg | Feed efficiency per animal, relative [1, 5]: 96.2% | Weight gain per animal, relative [1, 5]: 103.8% | Daily weight gain per animal ([1]; raw product 50 ppm, 2 weeks): 171 g | Feed efficiency per animal, absolute ([1]; raw product 50 ppm, 2 weeks): 1.900 | Weight gain per animal, absolute ([1]; raw product 50 ppm, 2 weeks): 2.4 kg | Feed efficiency per animal, relative ([1]; raw product 50 ppm, 2 weeks): 95.8% | Weight gain per animal, relative ([1]; raw product 50 ppm, 2 weeks): 104.3% | Daily weight gain per animal ([1]; raw product 50 ppm, 4 weeks): 257 g | Feed efficiency per animal, absolute ([1]; raw product 50 ppm, 4 weeks): 1.750 | Weight gain per animal, absolute ([1]; raw product 50 ppm, 4 weeks): 7.2 kg | Feed efficiency per animal, relative ([1]; raw product 50 ppm, 4 weeks): 93.0% | Weight gain per animal, relative ([1]; raw product 50 ppm, 4 weeks): 107.5% | Daily weight gain per animal ([1]; raw product 50 ppm, 6 weeks): 337 g | Feed efficiency per animal, absolute ([1]; raw product 50 ppm, 6 weeks): 1.698 | Weight gain per animal, absolute ([1]; raw product 50 ppm, 6 weeks): 13.8 kg | Feed efficiency per animal, relative ([1]; raw product 50 ppm, 6 weeks): 91.3% | Weight gain per animal, relative ([1]; raw product 50 ppm, 6 weeks): 109.8% | Daily weight gain per animal ([1]; raw product 50 ppm, 8 weeks): 396 g | Feed efficiency per animal, absolute ([1]; raw product 50 ppm, 8 weeks): 1.821 | Weight gain per animal, absolute ([1]; raw product 50 ppm, 8 weeks): 22.2 kg | Feed efficiency per animal, relative [1, 6]: 92.3% | Weight gain per animal, relative [1, 6]: 108.2% | Incidence of diarrhea, per cent of test days ([2]; 50 ppm (Salinomycin as mycelium), 1st and 2nd week): 19.6% | Incidence of diarrhea in test days ([2]; 50 ppm (Salinomycin as mycelium), 1st and 2nd week, of 56 test days): 11 days | Incidence of diarrhea, per cent of test days ([2]; 50 ppm (Salinomycin as mycelium), 1st through 8th week): 10.7% | Incidence of diarrhea in test days ([2]; 50 ppm (Salinomycin as mycelium), 1st through 8th week, of 224 test days): 24 days | Incidence of diarrhea, per cent of test days ([2]; 50 ppm (Salinomycin as mycelium), 3rd and 4th week): 5.4% | Incidence of diarrhea in test days ([2]; 50 ppm (Salinomycin as mycelium), 3rd and 4th week, of 56 test days): 3 days | Incidence of diarrhea, per cent of test days ([2]; 50 ppm (Salinomycin as mycelium), 5th and 6th week): 7.1% | Incidence of diarrhea in test days ([2]; 50 ppm (Salinomycin as mycelium), 5th and 6th week, of 56 test days): 4 days | Incidence of diarrhea, per cent of test days ([2]; 50 ppm (Salinomycin as mycelium), 7th and 8th week): 10.7% | Incidence of diarrhea in test days ([2]; 50 ppm (Salinomycin as mycelium), 7th and 8th week, of 56 test days): 6 days | influence on the incidence of diarrhea ([2]; depending on the dosage, against untreated control and comparison preparation): very good influence on the incidence of diarrhea | Incidence of diarrhea, per cent of test days ([2]; raw product 25 ppm, 1st and 2nd week): 48.2% | Incidence of diarrhea in test days ([2]; raw product 25 ppm, 1st and 2nd week, of 56 test days): 27 days | Incidence of diarrhea, per cent of test days ([2]; raw product 25 ppm, 1st through 8th week): 60.3% | Incidence of diarrhea in test days ([2]; raw product 25 ppm, 1st through 8th week, of 224 test days): 135 days | Incidence of diarrhea, per cent of test days ([2]; raw product 25 ppm, 3rd and 4th week): 46.6% | Incidence of diarrhea in test days ([2]; raw product 25 ppm, 3rd and 4th week, of 56 test days): 26 days | Incidence of diarrhea, per cent of test days ([2]; raw product 25 ppm, 5th and 6th week): 69.6% | Incidence of diarrhea in test days ([2]; raw product 25 ppm, 5th and 6th week, of 56 test days): 39 days | Incidence of diarrhea, per cent of test days ([2]; raw product 25 ppm, 7th and 8th week): 76.8% | Incidence of diarrhea in test days ([2]; raw product 25 ppm, 7th and 8th week, of 56 test days): 43 days | Incidence of diarrhea, per cent of test days ([2]; raw product 50 ppm, 1st and 2nd week): 12.5% | Incidence of diarrhea in test days ([2]; raw product 50 ppm, 1st and 2nd week, of 56 test days): 7 days | Incidence of diarrhea, per cent of test days ([2]; raw product 50 ppm, 1st through 8th week): 19.1% | Incidence of diarrhea in test days ([2]; raw product 50 ppm, 1st through 8th week, of 224 test days): 43 days | Incidence of diarrhea, per cent of test days ([2]; raw product 50 ppm, 3rd and 4th week): 12.5% | Incidence of diarrhea in test days ([2]; raw product 50 ppm, 3rd and 4th week, of 56 test days): 7 days | Incidence of diarrhea, per cent of test days ([2]; raw product 50 ppm, 5th and 6th week): 28.6% | Incidence of diarrhea in test days ([2]; raw product 50 ppm, 5th and 6th week, of 56 test days): 16 days | Incidence of diarrhea, per cent of test days ([2]; raw product 50 ppm, 7th and 8th week): 23.2% | Incidence of diarrhea in test days ([2]; raw product 50 ppm, 7th and 8th week, of 56 test days): 13 days | statistical significance of the improvement of the feed efficiency [3, 7]: 99% | statistical significance of the improvement of the weight development [3, 7]: 99.9% | Daily weight gain per animal [3, 8]: 164 g | Feed efficiency per animal, absolute [3, 8]: 1.983 | Weight gain per animal, absolute [3, 8]: 2.3 kg | Feed efficiency per animal, relative [3, 8]: 100.0% | Weight gain per animal, relative [3, 8]: 100.0% | Daily weight gain per animal [3, 9]: 261 g | Feed efficiency per animal, absolute [3, 9]: 1.726 | Weight gain per animal, absolute [3, 9]: 7.3 kg | Feed efficiency per animal, relative [3, 9]: 91.8% | Weight gain per animal, relative [3, 9]: 109.2% | Daily weight gain per animal [3, 10]: 332 g | Feed efficiency per animal, absolute [3, 10]: 1.723 | Weight gain per animal, absolute [3, 10]: 13.6 kg | Feed efficiency per animal, relative [3, 10]: 92.6% | Weight gain per animal, relative [3, 10]: 108.1% | Daily weight gain per animal [3, 11]: 393 g | Feed efficiency per animal, absolute [3, 11]: 1.837 | Weight gain per animal, absolute [3, 11]: 22.0 kg | Feed efficiency per animal, relative ([3]; 50 ppm (Salinomycin as mycelium, ++ 99% significance), 8 weeks): 93.2% | Weight gain per animal, relative ([3]; 50 ppm (Salinomycin as mycelium, +++ 99.9% significance), 8 weeks): 107.4% | MIC (Treponema hyodysenteriae): 0.05 µg/mL (≈ 0.0666 µM) | effect on Treponema hyodysenteriae (Treponema hyodysenteriae; compared against commercial preparations, Table 1): superior effect

CC[C@H]1OC(=O)C[C@@H](O)[C@H](C)[C@@H](O[C@@H]2O[C@H](C)[C@@H](O[C@H]3C[C@@](C)(O)[C@@H](O)[C@H](C)O3)[C@H](N(C)C)[C@H]2O)[C@@H](CC=O)C[C@@H](C)C(=O)/C=C/C(C)=C/[C@@H]1CO[C@@H]1O[C@H](C)[C@@H](O)[C@@H](OC)[C@H]1OC [Tylosin]
MIC (Treponema hyodysenteriae): > 100 µg/mL

CN(C)[C@@H]1C(O)=C(C(N)=O)C(=O)[C@@]2(O)C(O)=C3C(=O)c4c(O)cccc4[C@@](C)(O)[C@H]3C[C@@H]12 [Tetracycline-HCl]
MIC (Treponema hyodysenteriae): 50 µg/mL
